Where two headings read alike, the source gives them in different places.
Legend:
murine PD-L1 = murine PD-L1 (Mus musculus, UniProt Q9EP73); assay: 1H NMR titration with murine PD-L1; format: binding; details: over-titration 1:10 protein:compound
Protocol: We additionally compared the spectra of the interaction of 8j with hPD-L1 (Figure 2B) and murine PD-L1 (mPD-L1) (Figure 2C). Only for human PD-L1, changes in NMR were observed upon addition of 8j to the protein.
NMR spectra were recorded in PBS pH 7.4 containing 10% (v/v) of D2O added to the samples to provide the lock signal. Water suppression was carried out using the WATERGATE sequence. All the spectra were recorded at 300 K using a Bruker AVANCE 600 MHz spectrometer with the cryo-platform. The spectra were recorded at the ligand/protein ratio of 1:1, unless stated otherwise. The samples were prepared by adding small amounts of a 50 mM ligand stock solution in DMSO to the protein solution (0.20 mL) of PD-L1 fragment at a concentration of 0.2 mM. Spectra were visualized using TopSpin 4.0.2.

[1] = test system: PBMCs cocultured with CHO/TCRAct/PD-L1 cells; assay: Cytokine accumulation in culture media of the TCA assay (CBA Th1/Th2/Th17 kit); format: cell-based, human; details: TCA assay supernatants, four donors
Protocol: In addition to the expression of surface markers, the accumulation of immune-related cytokines in the culture media collected in the TCA assay was monitored with the cytometric bead array (CBA) human Th1/Th2/Th17 kit. […] Also, the levels of IL-6, IFN-γ, and IL-2 increased, but these increases were not statistically significant.
The concentration of the cytokines (IL-2, IL-4, IL-6, IL-10, IL-17A, IFN-γ, and TNFα) in supernatants was determined using the CBA Human Th1/Th2/Th17 kit (BD Biosciences), with data acquisition using the FACSCanto flow cytometer. The CBA beads were discriminated in FL-4 and FL-5 channels, while the concentration of specified cytokines was determined by the intensity of FL-2 fluorescence, using the respective standard reference curve and FCAP Array software (BD Biosciences). IL-4 was below the detection level and is not presented in the manuscript. Statistical significance was analyzed with one-way ANOVA using the Origin Pro 2020 software, followed by the Fisher’s posthoc test: *p < 0.05, **p < 0.01, […].

PD-1/PD-L1 complex = PD-1/PD-L1 complex (Homo sapiens, UniProt Q9NZQ7); assay: HTRF assay of PD-1/PD-L1 complex dissociation (CisBio); details: for remaining activity at 0.005 µM: 2 h;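 on all read-outs here: human PD-L1 at 5 nM with human PD-1 at 50 nM, TR-FRET signal read after 2 h at room temperature, background removed via negative control and scaled to positive control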
Sequence of PD-1/PD-L1 complex (Q9NZQ7 19-238 limits assumed, one chain of several): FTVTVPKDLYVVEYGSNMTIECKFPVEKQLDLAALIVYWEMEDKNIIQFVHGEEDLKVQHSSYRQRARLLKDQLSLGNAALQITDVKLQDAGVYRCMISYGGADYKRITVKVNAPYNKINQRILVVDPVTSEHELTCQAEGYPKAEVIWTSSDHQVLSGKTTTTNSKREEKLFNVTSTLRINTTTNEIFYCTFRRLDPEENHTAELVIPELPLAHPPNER
Protocol: HTRF was performed using the certified CisBio assay according to the manufacturer’s guidelines. The experiments were performed at 5 nM h-PD-L1 and 50 nM hPD-1 in the final formulation at 20 μL final volume in the well. To determine the half-maximal inhibitory concentration (IC50) of tested compounds, measurements were performed on two individual dilution series, unless states otherwise. After mixing all components according to the CisBio protocol, the plate was left for 2 h incubation at room temperature, followed by time-resolved fluorescence energy transfer (TR-FRET) measurement on Tecan Spark 20M. Collected data were background-subtracted on the negative control, normalized on the positive control, averaged, and fitted with normalized Hill’s equation to determine the IC50 value using Mathematica 12.

[2] = Cytotoxicity assay toward Jurkat-ECs; format: cell-based; details: human, Jurkat-EC cells, SI csv
Protocol: The cytotoxicity of compounds was verified toward Jurkat-ECs since these cells provide the readout in the ICB assay and present a much higher degree of susceptibility to the compounds’ toxicity than CHO-K1 cells (not shown). Jurkat-ECs were seeded on 96-well transparent plates in the presence of increasing concentrations of the compounds with DMSO-treated cells as a control. The concentration of DMSO was kept constant (0.1%). After 48 h of incubation, a tetrazolium reagent, Biolog redox dye MIX MB (Biolog), was added according to the manufacturer’s protocol, and the culture plates were incubated for an additional 2 h (37 °C, 5% CO2). The absorbance was measured using a Spark microplate reader (Tecan) at 590 nm with 750 nm as a reference. The data are presented as Jurkat-EC survival relative to DMSO-treated control cells. Data points represent mean ± SD values from three independent experiments. Half-maximal effective concentrations (EC50 values) were calculated from the dose–response curve using OriginPro 2020 (OriginLab) software.

[3] = test system: Jurkat-ECs alone or with CHO wt or CHO/TCRAct cells; assay: ICB assay control where PD-L1 is absent; format: cell-based; details: 6 h; Figure S1
Protocol: The functional assay of the blockade of PD-1/PD-L1 interaction in vitro (PD-1/PD-L1 Blockade Bioassay, Promega) was performed according to the manufacturer’s protocol. CHO/TCRAct/PD-L1 cells or CHO/TCRAct or CHO-K1 cells were seeded on 96-well white plates at the density of 10,000 cells/well and the next day overlaid with Jurkat T cells (20,000 cells/well) in the presence of increasing concentrations of the compounds with DMSO only as a control (the concentration of DMSO was kept constant at 0.1%) or atezolizumab, as a positive control, anti-PD-L1 monoclonal antibody (Selleckchem). The 2.5-fold dilutions of atezolizumab were prepared in the assay buffer (RPMI 1640 + 1% FBS) on the day of the assay. Activation of the Jurkat T cells, reflected by luciferase activity, was monitored by luminescence measurements after 6 h of incubation (37 °C, 5% CO2), and 20 min of additional incubation with the Bio-Glo assay reagent (Promega) at room temperature. The luminescence was read on a Spark microplate reader (Tecan). The data are presented as fold induction of the luminescence signal relative to either untreated (for atezolizumab) or DMSO-treated (for compound) cells. Data points represent mean ± SD values from three to five independent experiments. Half-maximal effective concentrations (EC50 values) were calculated from the Hill curve fitting to the experimental data using Origin Pro 2020 software (OriginLab). […]
of the Immune Checkpoint Blockade (ICB) assay, where 8h, 8i, and 8j were used to restore the activation of effector Jurkat-ECs. Jurkat-ECs were either kept alone, or contacted with one of the following cell lines: wild type CHO K1 cells (CHO wt), CHO K1 cells expressing TCR Activator (CHO/TCRAct), or CHO K1 cells expressing TCR Activator and […]. The cells were incubated with the indicated concentrations of the compounds for 6 hours and luminescence was measured as an indicator of TCR-dependent activation of Jurkat-ECs. The graphs present fold induction of the luminescence signal relative to DMSO-treated cells. […]

Sequence of murine PD-L1 (Q9EP73 18-134 limits assumed): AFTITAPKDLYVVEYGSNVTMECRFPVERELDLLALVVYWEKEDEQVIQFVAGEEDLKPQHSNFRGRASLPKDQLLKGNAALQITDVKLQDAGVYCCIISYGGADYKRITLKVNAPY

Q: With `COc1cc(-c2cccc(-c3ccc4c(c3)OCCO4)c2Cl)ccc1CNC(CO)(CO)CO` [8j, 2-(((3′-(Benzo-1,4-dioxan-6-yl)-2′-chloro-3-methoxy-[1,1′-biphenyl]-4-yl)methyl)amino)-2-(hydroxymethyl)propane-1,3-diol] as the compound, how does the “interaction with mPD-L1 by 1H NMR” value (murine PD-L1) read?
A: no interaction was observed

Q: And the “accumulation of immune-related cytokines in culture media” value [1]?
A: significant increases observed for IL-6, TNF-α, IFN-γ, IL-10, and IL-2

Q: What about the remaining activity at 0.005 µM (PD-1/PD-L1 complex; read-out: % of undissociated complex at 5 nM) of the same compound?
A: 0%

Q: And the remaining activity at 0.005 µM (PD-1/PD-L1 complex; read-out: HTRF % of the undissociated complex at 5 nM)?
A: 0%

Q: And the IC50 (PD-1/PD-L1 complex; HTRF, Table 4, <1.00 = limit of quantification reached)?
A: < 1 nM

Q: What about the EC50 at 48 h [2] of the same compound?
A: 2880 ± 390 nM

Q: And the “activation of Jurkat-ECs where PD-L1 is absent” value [3]?
A: requires the presence of PD-L1

— publication PMC8365601, “Terphenyl-Based Small-Molecule Inhibitors of Programmed Cell Death-1/Programmed Death-Ligand 1 Protein–Protein Interaction” (Journal of Medicinal Chemistry, 2021)
